Experimental data: patent US10627415B2, “Compositions and methods for diagnosing, monitoring, and treating an autoimmune disease” (BOARD OF TRUSTEES OF MICHIGAN STATE UNIVERSITY, priority 2015, dated 2020)
Several values for one entry are separate records, joined by “and”; a condition that tells them apart may be missing. Equal entries are not always repeated.

Key:
RBCs [1] = assay: C-peptide binding to RBCs (Example 1, supernatant subtraction); type: cell-based; conditions: RBCs of individual healthy controls; 20 picomoles human C-peptide, 75 micromolar albumin, 2 hours
Description: The amount of C-peptide binding to RBCs obtained from MS patients was compared to controls run on the same day. All samples were handled in an identical manner. Briefly, about 10 mL of blood were drawn from each donor; the RBCs were purified by centrifugation. Next, 20 picomoles of human C-peptide were added to a buffer containing 75 micromolar albumin. RBCs were added to this C-peptide and albumin-containing buffer and allowed to incubate for 2 hours. Next, the samples were centrifuged and the moles of C-peptide remaining in the supernatant are subtracted from the original amount added. This provided a value corresponding to the moles of C-peptide bound to the RBCs. […] Importantly, of the 25 MS patient samples analyzed, the values ranged from 2.7 to 4.8 picomoles of C-peptide bound to the RBCs, with 18 of the 25 above 3.2 picomoles. In comparison, one control was 3.1, another was 2.8; all others were below 2.45. Thus, separation exists between groups—approximately […] of bound C-peptide difference.

RBCs [2] = assay: C-peptide binding to RBCs, ELISA of supernatant (Example 2 protocol; hematocrit and storage variations); type: cell-based, human; conditions: for average C-peptide bound to the RBCs: 7% hematocrit, 20 nM C-peptide, 75 μM BSA (0.5%), 2 hours at 37° C.
Description: All samples were handled in an identical manner. Briefly, about 10 mL of blood was drawn from each donor; the RBCs were purified by centrifugation; and the RBCs were suspended in physiological salt solution (PSS). Then RBCs were combined with PSS (containing bovine serum albumin (BSA) as a C-peptide binding facilitator) and C-peptide to generate a mixture having a 7% hematocrit, 20 nM C-peptide, and 75 μM BSA (0.5%). The mixture was allowed to incubate for 2 hours at 37° C. Next, the samples were centrifuged to separate the cells from solution, the solution was diluted 1:50 with double distilled water, and the amount of C-peptide remaining in the solution was determined by ELISA. This provided a value corresponding to the moles of C-peptide bound to the RBCs. […] Whereas blood from the healthy controls bound an average of 1.99±0.32 pmoles C-peptide, blood from MS patients and OND patients bound averages of 3.51±0.59 pmoles of C-peptide and 2.23±0.51 pmoles of C-peptide, respectively. As shown by p values of less than 0.001, the increase in C-peptide binding relative to healthy controls and OND patients is significant.
Experiments were performed to determine the effect of hematocrit on C-peptide binding to RBCs. The experiment was conducted as described above in Experiment 2, except various hematocrits were tested. […] In general, increase the hematocrit results in a substantially linear increase in C-peptide binding when the RBCs are saturated with C-peptide.
Experiments were performed to determine the stability of the whole blood. The experiment was conducted as described above in Experiment 2, except the blood was stored in citrate tubes at 4° C. over a period of 4 days during the experiment. Only blood from healthy patients was tested.
(§1) Experiments were performed to determine the stability of supernatant generated after separating cells from solution as described in Experiment 2. The protocol of Experiment 2 was repeated on blood from healthy patients, but the supernatant was stored at 4° C. for from 1 to 3 days prior to determining C-peptide binding by the RBCs.
as §1, with “−20°” for “4°”, “C.” for “C. for”, “0 (day of draw)” for “1”, “6 weeks” for “3 days”

[3] = tested on: bovine pulmonary artery endothelial cells; assay: C-peptide binding to endothelial cells; type: cell-based; conditions: 1 hour at 37° C., 10 nM Zn2+ and C-peptide in DMEM containing serum
Description: Additional experiments were performed to determine whether a C-peptide facilitator can facilitate binding of C-peptide to cells expressing Glut1 other than RBCs. Endothelial cells (bovine pulmonary artery endothelial cells) were grown to confluency on 12-well tissue culture plates. When the cell reached confluency, they were incubated in Dulbecco's Modified Eagle Medium (DMEM) containing serum for 24 hours. Following incubation, the cells were washed and incubated for 1 hour at 37° C. in the presence of 10 nM Zn^2+ and C-peptide in DMEM containing serum. The endothelial cells were determined to have bound 2.0±0.1 attomoles of C-peptide per endothelial cell.

[4] = tested on: Neutrophils from healthy control patients; assay: C-peptide binding to neutrophils; type: cell-based, human; conditions: 20 nM C-peptide, 1 hour at 37° C.
Description: Neutrophils from healthy control patients were also tested. The neutrophils were isolated using techniques known in the art. Briefly, blood was drawn into a heparin-coated vacutainer. An equal volume of 3% Dextran was added to drawn whole blood in sterile 50 mL tubes. After inverting, the tubes were set upright for 30 minutes at room temperature to generate a plurality of layers. The top layer was aspirated and transferred to a new 50 mL tube and centrifuged at 500 g for 10 minutes at 4° C. The resulting top layer was discarded. The resulting pellet was resuspended in 10 mL 0.9% saline. After pooling suspensions together in a single tube, it was underplayed with 10 mL of hypaqu-ficoll and centrifuged at 800 g for 15 minutes at room temperature. The resulting liquid band was removed and the remainder was resuspended in 20 mL 0.2% saline and mixed. 20 mL of 1.6% saline was then added to the suspension and it was centrifuged at 250 g for 6 minutes at 4° C. The supernatant was removed and the pellet was suspended in PBS for use in experiments. The cells were counted and then incubated with 20 nM C-peptide for 1 hour at 37° C. to generate an incubated sample. The incubated sample was centrifuged and the amount of C-peptide in the supernatant was determined by ELISA. The neutrophils were determined to have bound 2.68 attomoles of C-peptide per neutrophil.

- C-peptide bound to the RBCs (RBCs [1]): 3.1 and 2.8 and below 2.45
- average C-peptide bound to the RBCs (RBCs [2]; MS patients): 3.51 ± 0.59 pmol
- average C-peptide bound to the RBCs (RBCs [2]; OND patients): 2.23 ± 0.51 pmol
- C-peptide binding (RBCs [2]; healthy blood stored in citrate tubes at 4° C., day 1): 2.38 pmol
- C-peptide binding (RBCs [2]; healthy blood stored in citrate tubes at 4° C., day 2): 2.23 pmol
- C-peptide binding (RBCs [2]; healthy blood stored in citrate tubes at 4° C., day 3): 2.14 pmol
- C-peptide binding (RBCs [2]; healthy blood stored in citrate tubes at 4° C., day 4): 1.83 pmol
- C-peptide binding (RBCs [2]; healthy blood, supernatant stored at 4° C., day 1): 2.23 pmol
- C-peptide binding (RBCs [2]; healthy blood, supernatant stored at 4° C., day 2): 2.17 pmol
- C-peptide binding (RBCs [2]; healthy blood, supernatant stored at 4° C., day 3): 2.20 pmol
- C-peptide binding (RBCs [2]; healthy blood, supernatant stored at −20° C., week 0 (day of draw)): 2.45 pmol
- C-peptide binding (RBCs [2]; healthy blood, supernatant stored at −20° C., week 1): 2.48 pmol
- C-peptide binding (RBCs [2]; healthy blood, supernatant stored at −20° C., week 3): 2.30 pmol
- C-peptide binding (RBCs [2]; healthy blood, supernatant stored at −20° C., week 6): 2.34 pmol
- average C-peptide bound to the RBCs (RBCs [2]; healthy controls): 1.99 ± 0.32 pmol
- C-peptide binding (RBCs [2]; healthy individuals that do not have MS): about 1500 C-peptide molecules per cell
- C-peptide binding by RBCs, Control (RBCs [2]; hematocrit 3.50%): 1.18 pmol
- C-peptide binding by RBCs, MS (RBCs [2]; hematocrit 3.50%): 1.63 pmol
- C-peptide binding by RBCs, Control (RBCs [2]; hematocrit 7%): 2.18 pmol
- C-peptide binding by RBCs, MS (RBCs [2]; hematocrit 7%): 3.38 pmol
- C-peptide binding by RBCs, Control (RBCs [2]; hematocrit 14%): 4.78 pmol
- C-peptide binding by RBCs, MS (RBCs [2]; hematocrit 14%): 6.25 pmol
Substance: C-peptide (EAEDLQVGQVELGGGPGAGSLQPLALEGSLQ; listed as Homo sapiens) [approximately 30 amino acid polypeptide that connects the A and B chain of mature insulin within the proinsulin molecule]
- C-peptide bound [3]: 2.0±0.1 attomoles of C-peptide per endothelial cell
- C-peptide bound [4]: 2.68 attomoles of C-peptide per neutrophil
